Common to all, as to assay: NCI anticancer screen, dose series, 48 h
The subject of experiment [1] is BT-549.
Experiment [2] concerns DU-145.
In experiment [3] the test system is HCC 2998.
Experiment [4] relates to HOP-92.
Experiment [5] relates to MDA-MB-231.
Experiment [6] deals with MDA-N.
In experiment [7] the test system is NCI-H23.
For experiment [8], the system named is NCI-H522.
The subject of experiment [9] is NCI/ADR-RES.
For experiment [10], the system named is RPMI-8226.
Experiment [11] deals with SN12C.
Experiment [12] has as its system SNB-75.
In experiment [13] the test system is UACC-62.
For experiment [14], the system named is EKVX.
Experiment [15] deals with HL-60.
Experiment [16] relates to HOP-62.
The test system of experiment [17] is IGROV-1.
The subject of experiment [18] is Malme-3M.
The subject of experiment [19] is SF-539.

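Grown in 96-well plates, cells were treated for 48 hours with each compound at five concentrations. Insufficient inhibition: endpoint recorded as highest concentration tested. GI50: concentration for 50% inhibition of growth.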 Active and inactive are the calls of the source. No stated cut-off is given here; in the data, active = GI50 up to about 1.1 µM and inactive = higher.

Take `COc1cc(OC)cc(-n2c(N)c(-c3nc4ccccc4n3C)c3ccc([N+](=O)[O-])cc3c2=O)c1`: the GI50 was > 100 µM (inactive) in experiment [1]; > 100 µM (inactive) in experiment [2]; > 100 µM (inactive) in [3]; 18.6 µM (inactive) in experiment [4]; 80.5 µM (inactive) in experiment [5]; > 100 µM (inactive) in experiment [6]. The GI50 is > 100 µM (inactive) in [7]; 55.8 µM (inactive) in [8]; 33.8 µM (inactive) in [9]; > 100 µM (inactive) in [10]; 94.4 µM (inactive) in experiment [11]; 2.02 µM (inactive) in [12]. Besides, the GI50 in [13] is > 100 µM (inactive).
For the molecule `N#Cc1c(O)c(/N=N/c2ccccc2F)c(=O)n2c1[nH]c1ccccc12`, the GI50 in [1] is 60 µM (inactive); in [2] it was 42.4 µM (inactive); in experiment [14], > 100 µM (inactive); in [3], 53.6 µM (inactive); in [15], 33 µM (inactive); in experiment [16], 43.7 µM (inactive). The GI50 in experiment [4] is 15.1 µM (inactive); in experiment [17] it was 74.8 µM (inactive); in experiment [5], 22.2 µM (inactive); in [6], 22 µM (inactive); in experiment [18], 28.5 µM (inactive); in experiment [7] it was 38.2 µM (inactive). Besides, the GI50 was 27.9 µM (inactive) in [8]; 50 µM (inactive) in [9]; > 100 µM (inactive) in [19]; 31.6 µM (inactive) in [11]; 30.4 µM (inactive) in [12]; 20.6 µM (inactive) in experiment [13].
`Cc1c(O)nc(-n2[nH]c3c(c2=O)CCCC3)[nH]c1=O`: the GI50 in experiment [1], in experiment [2], in experiment [14], in experiment [15], in [4] and in [17] was > 100 µM (inactive) in each case. In addition, the GI50 in experiment [5], in [6], in experiment [18], in experiment [7], in experiment [8] and in experiment [9] was > 100 µM (inactive) each time. Moreover, the GI50 in [10], in experiment [11] and in [13] was > 100 µM (inactive) each time.
Take `Cn1c(=O)c2c(nc3n(Cc4ccccc4)c(=O)c(Br)cn23)n(C)c1=O`: the GI50 is > 100 µM (inactive) in experiment [1]; > 100 µM (inactive) in experiment [2]; > 100 µM (inactive) in experiment [14]; > 100 µM (inactive) in experiment [3]; > 100 µM (inactive) in [15]; 80.5 µM (inactive) in experiment [16]. In addition, the GI50 in experiment [4], in experiment [17], in experiment [5], in [6], in [7] and in experiment [8] was > 100 µM (inactive) throughout. Moreover, the GI50 in experiment [9], in experiment [10], in [19], in experiment [11], in experiment [12] and in experiment [13] was > 100 µM (inactive) throughout.
As for `Cc1cccc2c(N)c3cccc(C(=O)NCC[N+](C)(C)Cc4sccc4[N+](=O)[O-])c3nc12`, the GI50 in experiment [1] is 22 µM (inactive); in experiment [2], 23.8 µM (inactive); in experiment [14] it was 18.6 µM (inactive); in [3] it was 7.69 µM (inactive); in [15] it was > 100 µM (inactive); in experiment [16], 2.6 µM (inactive). For the same molecule, the GI50 in experiment [4] was 34.5 µM (inactive); in experiment [17], 2.71 µM (inactive); in experiment [5], 12 µM (inactive); in experiment [6] it was 19.6 µM (inactive); in experiment [18], 10.4 µM (inactive); in [7] it was 3.94 µM (inactive). Moreover, the GI50 was 2.64 µM (inactive) in experiment [8]; 51.4 µM (inactive) in experiment [9]; 2.83 µM (inactive) in [19]; 0.332 µM (active) in experiment [11]; 7.28 µM (inactive) in [12]; 13.6 µM (inactive) in [13].
For `O=C1CSC(c2cccc(Cl)c2)N1c1ccc(-c2ccc(-n3c(-c4ccccc4)nc4ccccc4c3=O)cc2)cc1` (stereo not drawn), the GI50 in experiment [1] was 28.5 µM (inactive); in experiment [2], 53.7 µM (inactive); in [14], 59 µM (inactive); in experiment [3], 15.1 µM (inactive); in [15], 21.8 µM (inactive); in [16] it was 67.8 µM (inactive). The GI50 in [4] is 17.1 µM (inactive); in experiment [17], 77.4 µM (inactive); in experiment [5], 50.6 µM (inactive); in experiment [6], 47.9 µM (inactive); in [18] it was 46 µM (inactive); in experiment [7] it was 58.5 µM (inactive). For the same molecule, the GI50 in experiment [8] was 41.6 µM (inactive); in experiment [9] it was 36.9 µM (inactive); in experiment [10] it was 42.8 µM (inactive); in experiment [19], 72.3 µM (inactive); in [11], 62.4 µM (inactive); in experiment [13], 31.4 µM (inactive).
Consider `CCC(=O)NCCc1c[nH]c2ccc(OC)cc12`, for which the GI50 in experiment [1], in experiment [2], in experiment [14], in experiment [3], in experiment [16] and in experiment [4] was > 100 µM (inactive) throughout. The GI50 in experiment [17], in experiment [5], in experiment [6], in experiment [18], in experiment [7] and in experiment [8] was > 100 µM (inactive) each time. The GI50 in experiment [9], in experiment [10], in experiment [19], in experiment [11], in experiment [12] and in experiment [13] was > 100 µM (inactive) throughout.
For the molecule `COc1ccc2[nH]c3ccc4cc[n+](CCN5CCC(C6CCN(CC[n+]7ccc8ccc9[nH]c%10ccc(OC)cc%10c9c8c7)CC6)CC5)cc4c3c2c1`, the GI50 in experiment [1] is 35.5 µM (inactive); in experiment [2], 21.4 µM (inactive); in experiment [14] it was > 50 µM (inactive); in [16] it was > 40.6 µM (inactive); in [4] it was 0.303 µM (active); in experiment [17], 0.352 µM (active). Also, the GI50 was 8.04 µM (inactive) in experiment [5]; 2.96 µM (inactive) in experiment [6]; 0.526 µM (active) in [18]; > 50 µM (inactive) in experiment [7]; 0.875 µM (active) in [8]; 19.5 µM (inactive) in [9]. The GI50 is 2.65 µM (inactive) in [19], 0.661 µM (active) in experiment [11], 14.2 µM (inactive) in [12] and 0.938 µM (active) in [13].
Take `Cc1ccc(S(=O)(=O)N2CCCN(S(=O)(=O)c3ccc(C)cc3)CCN(S(=O)(=O)c3ccc(C)cc3)CCCSCC2)cc1`: the GI50 in experiment [1] is > 100 µM (inactive); in experiment [2], > 100 µM (inactive); in [14], > 100 µM (inactive); in [3], > 100 µM (inactive); in experiment [15], > 100 µM (inactive); in experiment [16] it was 54.5 µM (inactive). Further, the GI50 was > 100 µM (inactive) in experiment [4]; > 100 µM (inactive) in [17]; 59.3 µM (inactive) in experiment [5]; > 100 µM (inactive) in [6]; > 100 µM (inactive) in experiment [7]; > 100 µM (inactive) in [9]. The GI50 in [10], in experiment [19], in experiment [11], in [12] and in experiment [13] was > 100 µM (inactive) throughout.
In the case of `Cc1ccccc1NC(=O)Cc1csc2[n+]1C(=O)/C(=C/c1ccc([N+](=O)[O-])cc1)S2`, the GI50 in [1] was 13 µM (inactive); in experiment [2], 53.8 µM (inactive); in [14] it was 22.7 µM (inactive); in experiment [3], 28.1 µM (inactive); in experiment [15] it was 27.7 µM (inactive); in experiment [16], 33.5 µM (inactive). Besides, the GI50 in experiment [4] is 19.5 µM (inactive); in experiment [17] it was 25.7 µM (inactive); in experiment [5], 37.5 µM (inactive); in [6], 37.2 µM (inactive); in experiment [7], 23.9 µM (inactive); in experiment [9], 42.4 µM (inactive). Further, the GI50 in [19] was 29 µM (inactive); in [11], 43.4 µM (inactive); in experiment [12], 19.3 µM (inactive).
Regarding `COC(=O)c1cc(C)n(CN(Cn2nc(C(=O)OC)cc2C)c2ccccc2)n1`, the GI50 is 31 µM (inactive) in experiment [1]; 25.9 µM (inactive) in experiment [2]; > 100 µM (inactive) in [14]; 4.7 µM (inactive) in [15]; 97.3 µM (inactive) in experiment [16]; 66.1 µM (inactive) in experiment [4]. The GI50 is 43 µM (inactive) in experiment [17]; > 100 µM (inactive) in [5]; 38.5 µM (inactive) in experiment [6]; 43.2 µM (inactive) in experiment [18]; 25.2 µM (inactive) in experiment [7]; 39 µM (inactive) in [8]. Besides, the GI50 in experiment [9] is 21.2 µM (inactive); in experiment [10], 17.3 µM (inactive); in experiment [19], 17.7 µM (inactive); in experiment [11], 55.1 µM (inactive); in experiment [13], 15.1 µM (inactive).
